Source: ChEMBL document CHEMBL1921760, “Design, synthesis and biological evaluation of 6-pyridylmethylaminopurines as CDK inhibitors” (Bioorg Med Chem, 2011)

Assays:
[1] = Inhibition of PKA
A2780 [2] = experiment: Growth inhibition of cisplatin-susceptible human A2780 cells after 96 hrs by sulforhodamine B assay; format: functional; details: A2780, 96 h
A2780 [3] = experiment: Growth inhibition of cisplatin-resistant human A2780 cells after 96 hrs by sulforhodamine B assay; format: functional; details: A2780, 96 h
CH1 [4] = experiment: Growth inhibition of doxorubicin-susceptible human CH1 cells after 96 hrs by sulforhodamine B assay; format: functional; details: CH1, 96 h
HCT-116 = experiment: Growth inhibition of human HCT116 cells after 96 hrs by sulforhodamine B assay; format: functional; details: HCT-116, 96 h
HT-29 = experiment: Growth inhibition of human HT-29 cells after 96 hrs by sulforhodamine B assay; format: functional; details: HT-29, 96 h
KM12 = experiment: Growth inhibition of human KM12 cells after 96 hrs by sulforhodamine B assay; format: functional; details: KM12, 96 h
[5] = Metabolic stability in mouse liver microsomes assessed as compound metabolized at 10 uM after 30 mins by LC-MS analysis; format: ADME, Microsome; details: read-out: Activity
CH1 [6] = experiment: Growth inhibition of doxorubicin-resistant human CH1 cells after 96 hrs by sulforhodamine B assay; format: functional; details: CH1, 96 h
[7] = biological target: Cyclin-dependent kinase 1/cyclin B1 (Homo sapiens, UniProt P06493); experiment: Inhibition of CDK1/cyclin B; format: protein-complex assay
[8] = biological target: Cyclin-dependent kinase 2/cyclin E1 (Homo sapiens, UniProt P24941); experiment: Inhibition of CDK2/cyclin E; format: protein-complex assay
[9] = biological target: Cyclin-dependent kinase 4/cyclin D1 (Homo sapiens, UniProt P11802); experiment: Inhibition of CDK4/cyclin D1; format: protein-complex assay
[10] = biological target: Cyclin-dependent kinase 7/ cyclin H (Homo sapiens, UniProt P50613); experiment: Inhibition of CDK7/cyclin H; format: protein-complex assay
[11] = biological target: Mitogen-activated protein kinase 1 (Homo sapiens, UniProt P28482); experiment: Inhibition of ERK2
Sequence of Mitogen-activated protein kinase 1 (P28482 whole entry): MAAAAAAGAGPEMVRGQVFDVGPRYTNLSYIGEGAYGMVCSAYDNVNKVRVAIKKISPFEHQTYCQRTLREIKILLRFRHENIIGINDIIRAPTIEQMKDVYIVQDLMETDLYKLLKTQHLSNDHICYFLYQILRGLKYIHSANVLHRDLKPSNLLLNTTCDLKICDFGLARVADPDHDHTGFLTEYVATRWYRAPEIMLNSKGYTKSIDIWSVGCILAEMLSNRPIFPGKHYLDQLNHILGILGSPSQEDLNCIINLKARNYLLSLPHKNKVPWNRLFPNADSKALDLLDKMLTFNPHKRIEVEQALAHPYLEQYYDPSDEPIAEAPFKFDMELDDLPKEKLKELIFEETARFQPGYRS

Sequence of Cyclin-dependent kinase 4/cyclin D1 (P11802 whole entry): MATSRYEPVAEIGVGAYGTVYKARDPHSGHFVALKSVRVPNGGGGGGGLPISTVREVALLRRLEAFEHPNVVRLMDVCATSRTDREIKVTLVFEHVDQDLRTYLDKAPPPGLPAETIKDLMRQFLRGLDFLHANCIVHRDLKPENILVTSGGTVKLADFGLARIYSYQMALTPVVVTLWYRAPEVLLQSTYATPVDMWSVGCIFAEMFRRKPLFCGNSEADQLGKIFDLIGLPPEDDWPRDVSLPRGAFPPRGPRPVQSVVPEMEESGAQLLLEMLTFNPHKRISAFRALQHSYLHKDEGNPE
Sequence of Cyclin-dependent kinase 4/cyclin D1 (P24385 whole entry, further chain): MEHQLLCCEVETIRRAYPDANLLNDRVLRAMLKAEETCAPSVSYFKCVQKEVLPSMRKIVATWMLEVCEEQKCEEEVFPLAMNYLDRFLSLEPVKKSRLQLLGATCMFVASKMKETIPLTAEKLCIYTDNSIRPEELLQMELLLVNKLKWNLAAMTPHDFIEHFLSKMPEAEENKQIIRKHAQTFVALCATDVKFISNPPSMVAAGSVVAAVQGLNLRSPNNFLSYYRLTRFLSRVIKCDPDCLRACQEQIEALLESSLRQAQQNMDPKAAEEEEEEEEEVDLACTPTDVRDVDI
Sequence of Cyclin-dependent kinase 1/cyclin B1 (P06493 whole entry): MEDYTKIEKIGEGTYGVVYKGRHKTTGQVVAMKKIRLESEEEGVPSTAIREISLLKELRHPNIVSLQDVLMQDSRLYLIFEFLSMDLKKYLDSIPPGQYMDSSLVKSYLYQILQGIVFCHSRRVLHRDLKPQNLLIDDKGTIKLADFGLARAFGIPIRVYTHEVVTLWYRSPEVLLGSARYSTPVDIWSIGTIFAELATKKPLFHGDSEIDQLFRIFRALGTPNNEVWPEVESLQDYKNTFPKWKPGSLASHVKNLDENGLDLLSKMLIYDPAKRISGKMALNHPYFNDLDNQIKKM
Sequence of Cyclin-dependent kinase 1/cyclin B1 (P14635 whole entry, further chain): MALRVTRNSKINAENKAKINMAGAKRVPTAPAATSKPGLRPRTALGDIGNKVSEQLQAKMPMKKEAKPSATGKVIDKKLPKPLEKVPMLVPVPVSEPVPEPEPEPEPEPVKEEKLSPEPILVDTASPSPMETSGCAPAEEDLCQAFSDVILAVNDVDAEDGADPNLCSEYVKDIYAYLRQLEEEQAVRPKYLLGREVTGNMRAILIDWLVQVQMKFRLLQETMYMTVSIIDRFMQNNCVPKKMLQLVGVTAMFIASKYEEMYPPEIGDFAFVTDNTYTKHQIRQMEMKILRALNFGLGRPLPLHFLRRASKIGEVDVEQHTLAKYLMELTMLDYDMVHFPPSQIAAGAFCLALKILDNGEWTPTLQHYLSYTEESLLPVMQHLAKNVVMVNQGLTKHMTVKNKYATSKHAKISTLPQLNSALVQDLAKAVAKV
Sequence of Cyclin-dependent kinase 7/ cyclin H (P51946 whole entry): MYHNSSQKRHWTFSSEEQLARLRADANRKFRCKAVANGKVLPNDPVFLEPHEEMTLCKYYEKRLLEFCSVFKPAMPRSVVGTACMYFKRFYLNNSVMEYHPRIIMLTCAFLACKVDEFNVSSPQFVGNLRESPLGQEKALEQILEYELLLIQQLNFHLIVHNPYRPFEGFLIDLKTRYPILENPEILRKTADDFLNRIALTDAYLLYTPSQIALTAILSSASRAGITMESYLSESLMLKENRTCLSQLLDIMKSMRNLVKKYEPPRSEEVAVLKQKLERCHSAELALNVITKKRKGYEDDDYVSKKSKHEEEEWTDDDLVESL
Sequence of Cyclin-dependent kinase 7/ cyclin H (P50613 whole entry): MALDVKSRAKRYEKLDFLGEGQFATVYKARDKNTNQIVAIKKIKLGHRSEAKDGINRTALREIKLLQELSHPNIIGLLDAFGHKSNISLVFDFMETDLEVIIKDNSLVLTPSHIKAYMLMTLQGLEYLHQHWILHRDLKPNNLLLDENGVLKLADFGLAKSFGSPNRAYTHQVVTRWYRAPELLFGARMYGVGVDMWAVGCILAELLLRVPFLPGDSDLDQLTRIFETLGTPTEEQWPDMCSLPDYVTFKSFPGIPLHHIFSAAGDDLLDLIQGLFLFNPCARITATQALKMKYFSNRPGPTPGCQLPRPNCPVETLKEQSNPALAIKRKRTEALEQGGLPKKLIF

Compound | IC50 [1] [µM] | GI50 (A2780 [2]) [µM] | GI50 (A2780 [3]) [µM] | GI50 (HCT-116) [µM] | GI50 (HT-29) [µM] | metabolised at 0.5 h, 10 µM [5] [%] | IC50 [7] [µM] | IC50 [8] [µM] | IC50 [9] [µM] | IC50 [10] [µM] | IC50 [11] [µM] | GI50 (CH1 [4]) [µM] | GI50 (KM12) [µM] | GI50 (CH1 [6]) [µM]
CC[C@@H](Nc1nc(NCc2ccccn2)c2ncn(C(C)C)c2n1)C(O)C(C)(C)C (mixture of isomers) | > 200 | 23 | > 50 | 29 | 34 | 93 | 200 |  |  |  |  | 34 | 45 | 27
CC[C@H](Nc1nc(NCc2cccnc2)c2ncn(C(C)C)c2n1)C(O)C(C)(C)C (mixture of isomers) | > 200 | 18 | 22 | 24 | 22 | 50 | 21 | 0.39 | 13 | 3.5 |  | 23 | 19 | 18.5
CC[C@H](Nc1nc(NCc2ccccn2)c2ncn(C(C)C)c2n1)C(O)C(C)C (mixture of isomers) | > 200 | 35 | > 50 | > 50 | > 50 | 23 | 200 |  |  |  |  | > 50 | > 50 | > 50
CC[C@@H](Nc1nc(NCc2cccnc2)c2ncn(C(C)C)c2n1)C(C)O (mixture of isomers) | > 200 | 3.1 | 4.4 | 2.5 | 4.7 | 10 | 4.9 |  |  |  | 23 | 4.5 | 4.7 | 5.2
CC[C@H](Nc1nc(NCc2ccccc2)c2ncn(C(C)C)c2n1)C(O)C(C)(C)C (mixture of isomers) | > 200 | 21.5 | 23 | 27 | 21.5 | 74 |  |  |  |  | > 200 | 26 | 19 | 21.5
CCC(O)[C@H](CC)Nc1nc(NCc2cccnc2)c2ncn(C(C)C)c2n1 (mixture of isomers) | > 200 | 4.3 | 12.5 | 5.4 | 12.5 | 27 | 13 | 0.11 | 11 | 1.5 |  | 11 | 8.2 | 9.4
CC[C@@H](Nc1nc(NCc2cccnc2)c2ncn(C(C)C)c2n1)C(O)C(C)(C)C (mixture of isomers) | > 200 | 18 | 23 | 20 | 22 | 46 | 23 | 1 | 24 | 1.6 |  | 23 | 19 | 23
CCC(O)[C@@H](CC)Nc1nc(NCc2ccccn2)c2ncn(C(C)C)c2n1 (mixture of isomers) | > 200 | 22 | 40 | 29 | > 50 | 88 |  |  |  |  |  | 27 | 45 | 26
CC[C@@H](Nc1nc(NCc2ccccn2)c2ncn(C(C)C)c2n1)C(O)C(C)C (mixture of isomers) | > 200 | 40 | > 50 | > 50 | > 50 | 94 |  |  |  |  |  | > 50 | > 50 | > 50
CCC(O)[C@H](CC)Nc1nc(NCc2ccccc2)c2ncn(C(C)C)c2n1 (mixture of isomers) | > 200 | 16 | 21 | 20 | 23 | 67 |  |  | 20 | 1.1 |  |  | 27 | 
CC[C@@H](Nc1nc(NCc2ccccn2)c2ncn(C(C)C)c2n1)C(C)(C)O | > 200 | 34 | > 50 | > 50 | > 50 | 73 |  |  |  |  |  | > 50 | > 50 | > 50
CC[C@H](Nc1nc(NCc2cccnc2)c2ncn(C(C)C)c2n1)C(C)O (mixture of isomers) | > 200 | 0.78 | 1 | 0.76 | 1.1 | 33 | 2.2 |  |  |  | 20 | 0.92 | 1.15 | 1.5
CC[C@H](Nc1nc(NCc2ccccn2)c2ncn(C(C)C)c2n1)C(O)C(C)(C)C (mixture of isomers) | > 200 | 38 | > 50 | > 50 | 28 | 97 | 200 |  |  |  |  | > 50 | 36 | 47

The next lines start with results.

IC50 [1] [µM] | GI50 (A2780 [2]) [µM] | GI50 (A2780 [3]) [µM] | GI50 (HCT-116) [µM] | GI50 (HT-29) [µM] | metabolised at 0.5 h, 10 µM [5] [%] | IC50 [7] [µM] | IC50 [8] [µM] | IC50 [9] [µM] | IC50 [10] [µM] | IC50 [11] [µM] | Compound | GI50 (CH1 [4]) [µM] | GI50 (KM12) [µM] | GI50 (CH1 [6]) [µM]
> 50 | 23 | 22 | 10 | 23 | 3 |  |  |  |  |  | CC[C@H](CO)Nc1nc(NCc2ccncc2)c2ncn(C(C)C)c2n1 | 8.2 | 7 | 
> 200 | 21 | 23 | 29 | > 50 | 85 |  |  |  |  |  | CCC(O)[C@H](CC)Nc1nc(NCc2ccccn2)c2ncn(C(C)C)c2n1 (mixture of isomers) | 33 | > 50 | 26
92 | 17 | 21 | 22 | 13 | 83 |  |  |  |  | > 200 | CC[C@@H](Nc1nc(NCc2ccccc2)c2ncn(C(C)C)c2n1)C(O)C(C)C (mixture of isomers) | 23 | 27 | 19
139 | 14.5 | 21 | 26 | 23 | 63 |  |  |  |  |  | CCC(O)[C@@H](CC)Nc1nc(NCc2ccccc2)c2ncn(C(C)C)c2n1 (mixture of isomers) | 23 | 23 | 18
> 50 | 5.2 | 6.6 | 4.5 | 5.8 | 54 |  |  | 20 | 0.18 | 24 | CC[C@H](CO)Nc1nc(NCc2cccnc2)c2ncn(C(C)C)c2n1 | 4.8 | 5.5 | 16.5
> 50 | 21.5 | 28 | 26 | 54 |  |  |  | 3.8 | 0.04 |  | CC[C@H](CO)Nc1nc(NCc2ccccn2)c2ncn(C(C)C)c2n1 | 26 | 38 | 23
83 | 20 | 23 | 24 | 23 | 76 |  |  | 33 | 3 | 88 | CC[C@H](Nc1nc(NCc2ccccc2)c2ncn(C(C)C)c2n1)C(O)C(C)C (mixture of isomers) | 25 | 25 | 24
191 | 15 | 23 | 20 | 23 | 52 |  |  |  |  |  | CC[C@@H](Nc1nc(NCc2ccccc2)c2ncn(C(C)C)c2n1)C(C)(C)O | 23 | 21 | 19.5
> 50 | 6.4 | 3.8 | 5.4 | 18 | 91 |  |  | 23 | 0.39 | 43 | CC[C@@H](Nc1nc(NCc2ccccc2)c2ncn(C(C)C)c2n1)C(C)O (mixture of isomers) | 5 | 5.4 | 4.6
> 50 | 3.3 | 3.4 | 1.45 | 4.9 | 67 |  |  | 9 | 0.69 | 29 | CC[C@H](Nc1nc(NCc2ccccc2)c2ncn(C(C)C)c2n1)C(C)O (mixture of isomers) | 1.75 | 1.9 | 1.28
200 | 16 | 22 | 16 | 23 | 73 |  |  |  |  |  | CC[C@H](Nc1nc(NCc2ccccc2)c2ncn(C(C)C)c2n1)C(C)(C)O | 22 | 20 | 
87 | 18.5 | 23 | 24 | 14.5 | 79 |  |  | 200 |  | > 200 | CC[C@@H](Nc1nc(NCc2ccccc2)c2ncn(C(C)C)c2n1)C(O)C(C)(C)C (mixture of isomers) | 23 | 17 | 19
